Data on one compound can be found in patent publication US7893023B2, “Prodrugs activated by plasmin and their use in cancer chemotherapy” (priority 2000, dated 2011).

Read-outs that look alike come from different tables or passages of the source.

For data set [1], the system named is LS174T colon tumor xenografts. Put plainly: Chemotherapeutic activity in the LS174T human colon tumor xenograft model. In kind it is in vivo, mice. An excerpt: Animals were kept under pathogen-free conditions with food and water supplied ad libitum, and kept for about one week before implantation of the tumors. Fragments (˜2 mm) of tumors grown in nude mice were implanted subcutaneously in both flanks of the mice. Tumors were generally allowed to grow to attain a diameter of 5-6 mm each (approximately two weeks).
The mice weighed 20.0-25.0 g at the beginning of the study. They were selected and assigned to groups in order to have equally distributed tumor volumes in the different groups. In each group, mice were labeled individually. Treatments were assigned randomly to those groups.
All dosing solutions were prepared the day of injection by dissolution in water ( 1/10 of the expected final volume) and further dilution with 0.9% (w/v) NaCl. The concentration of these solutions was checked (A475 nm determination) after sterilization by filtration (0.22 μm) and adjusted to the final required value using sterile 0.9% (w/v) NaCl).
Treatments were administered by the i.p. route. The mice received a constant volume (10 μl/g) of either saline (control group) or drug. Mortality and clinical signs were recorded up to 4 hours post-treatment on dosing days, and daily thereafter. Their behavior was equally noted. Individual body weights were generally recorded daily until day 14 and at least twice a week thereafter.
Tumor growth was monitored by two-dimensional measurements using calipers and a precision of 0.5 mm. Tumor volumes were calculated according to the following formula: Vt=[length×(width)^2]/2
Median relative tumor volumes (RTV) were calculated as tumor volumes determined at individual days divided by tumor volumes on day 0. For treated groups, growth inhibition was estimated as the percentage ratio of median RTV of treated (T) mice versus controls (C) on each day of tumor treatment. T/C(%)=[Median RTV(treated group)/Median RTV(control group)]×100
The minimal T/C value (%) for each treatment was used as a parameter for maximum efficacy. Duration of growth inhibition was assessed by considering growth delays (T-C) for one (200%) and two (400%) doublings of the median RTV).
To determine the statistical significance of any difference in median RTV between two groups, the Mann-Whitney test was used. The test was conducted at a p level of 0.05 (two tailed) using the GraphPad Prism 3.00 software.
Female Swiss nude mice were 5 weeks old upon delivery (See General Methods, Section O). They were kept under pathogen-free conditions with food and water supplied ad libitum, and kept for about one week before implantation of the tumors. Fragments (˜2 mm) of LS174T tumors grown in nude mice were implanted subcutaneously in both flanks of the mice used in the study. Tumors were left to grow for 17 days. At that time, the mice weighed about 20.5-26.5 g.
Mice were then selected and assigned to groups in order to have equally distributed tumor volumes in different groups (5-6 mice, 9-10 tumors/group). The dose levels of Compound II, DOX used in the study, were selected on the basis of a lethality study previously conducted on OF-1 normal mice. The dose of DOX was based on previous chemotherapy experiments performed in nude mice with the same dosing schedule.
Treatments were administered by the i.p. route on days 0, 1, 2, 3 and 4, the mice receiving a constant volume (10 μl/g) of either saline or the different dosing solutions. DOX was used at 3.8 μmol/kg, Compound II, DOX was used at 25.9 μmol/kg and 34.5 μmol/kg. Clinical signs (recorded 0.5, 1, 2 and 4 hours after dosing and daily between dosing days) and body weights (recorded on each day of tumor measurement) were used to assess treatment toxicity, tumor growth was monitored on days 7, 12, 15, 19, 22, 26, 29, 33 and 36 by two-dimensional measurements using calipers and a precision of 0.5 mm.

A further data set deals with OF-1 mice. The following applies: obtained under the same conditions, known value; cited from earlier work.
Setting [2] is: DOX 3.8 μmol/kg, Compound II, DOX lower dosage 25.9 μmol/kg, i.p. days 0-4.

Protocol for B16-B16 murine melanoma: Male C57-B16 black mice were 5 weeks old upon delivery. The body weight of the animals was approximately 20 g at the beginning of the test (See General Methods, Section O).
The animals were divided in eight groups (5 mice per group). Confluent murine melanoma B16-B16 cells (See General Methods, Section E.) were washed twice with PBS and EDTA (See General Methods, Section F.) twice and detached with trypsin (2 min incubation at 37° C.), that was thereafter neutralized by DMEM-F12 (containing 10% of calf serum). The cells were centrifuged for 5 min at 300 g. The pellet was resuspended twice in the DMEM-F12 without serum and centrifuged 5 min at 300 g.
The number of cells per ml of DMEM-F12 was then estimated (Brucker chamber) and the dilution of 2.5×10^5 cells/ml prepared. Each animal received 200 μl of this suspension (5.0×10^4 cells) in its tail vein. The day of injection was considered day 0 of the study. […] Animals were weighed on days 0, 1, 3, 6, 8 and 14. Their behavior and eventual clinical signs were also noted. All animals were sacrificed on day 14 and autopsied.
The lung lobes were fixed in a Bouin's solution (picric acid: formaldehyde, 40%: acetic acid, 15:5:1, v/v). Every lobe immersed in the fixing solution in a Petri flask was uniformly lighted against an opaque black background. Pictures of the front and back side of every lobe were taken with the help of a light microscope, scanned and digitized. The relative surface occupied by B116-B16 colonies was then estimated with the Scion Image Program.
The individual mean values were analyzed with the Scheffe's F-test to evaluate the statistical significance of differences observed between the groups.

As for `COc1cccc2c1C(=O)c1c(O)c3c(c(O)c1C2=O)C[C@@](O)(C(=O)CO)C[C@@H]3O[C@H]1C[C@H](N)[C@H](O)[C@H](C)O1` [DOX, Doxorubicin], in data set [1] (DOX 3.8 μmol/kg i.p. days 0-4), the antitumor activity result is “total lack of activity”. Moreover, the tumor regression entry in data set [1] (DOX 3.8 μmol/kg i.p. days 0-4) was “No tumor regression”. Also, in data set [1] (setting [2]), the treatment-related mortality entry was “No treatment-related mortality”. Also, in data set [1] (setting [2]), the weight loss entry was “no significant weight loss”. The “lung surface occupied by B16-B16 metastases” value stood at 44.0±6.3% with B16-B16 murine melanoma (5.2 μmol/kg i.p. days 1 and 3, day 14); 23.4±5.7% in the data set with B16-B16 murine melanoma (8.6 μmol/kg i.p. days 1 and 3, day 14). Besides, the “mean body weight, % of initial” value worked out at 104.7% in the data set on B16-B16 murine melanoma (5.2 μmol/kg, day 14) and 110% with B16-B16 murine melanoma (8.6 μmol/kg, end of study). The “activity on lung metastases” value in the data set with B16-B16 murine melanoma (5.2 and 8.6 μmol/kg) was “did not show any significant activity”. Further, the LD50 in the data set on OF-1 mice is 4.1 µmol/kg.

As a reminder, the LD50 is the dose at which mortality reaches 50%.
